Source: patent US5688913A, “CS-1 peptidomimetics, compositions and methods of using the same” (Cytel Corporation, priority 1995, dated 1997)
pIC50: −log10 of the molar value. Like-named read-outs stand apart in the source and are kept apart here. Square brackets hold non-standard residues; d marks the D form. Peptide text beside a SMILES is read from it. * marks the point of attachment. PhAc = O=C(Cc1ccccc1)*

Assays:
VLA-4 = VLA-4 (Homo sapiens, UniProt P05556+P13612); test: cell-based; format: cell-based; design: host or cells: Jurkat (human T lymphoblastic line)
VLA-4, sequence (P13612 34-1032): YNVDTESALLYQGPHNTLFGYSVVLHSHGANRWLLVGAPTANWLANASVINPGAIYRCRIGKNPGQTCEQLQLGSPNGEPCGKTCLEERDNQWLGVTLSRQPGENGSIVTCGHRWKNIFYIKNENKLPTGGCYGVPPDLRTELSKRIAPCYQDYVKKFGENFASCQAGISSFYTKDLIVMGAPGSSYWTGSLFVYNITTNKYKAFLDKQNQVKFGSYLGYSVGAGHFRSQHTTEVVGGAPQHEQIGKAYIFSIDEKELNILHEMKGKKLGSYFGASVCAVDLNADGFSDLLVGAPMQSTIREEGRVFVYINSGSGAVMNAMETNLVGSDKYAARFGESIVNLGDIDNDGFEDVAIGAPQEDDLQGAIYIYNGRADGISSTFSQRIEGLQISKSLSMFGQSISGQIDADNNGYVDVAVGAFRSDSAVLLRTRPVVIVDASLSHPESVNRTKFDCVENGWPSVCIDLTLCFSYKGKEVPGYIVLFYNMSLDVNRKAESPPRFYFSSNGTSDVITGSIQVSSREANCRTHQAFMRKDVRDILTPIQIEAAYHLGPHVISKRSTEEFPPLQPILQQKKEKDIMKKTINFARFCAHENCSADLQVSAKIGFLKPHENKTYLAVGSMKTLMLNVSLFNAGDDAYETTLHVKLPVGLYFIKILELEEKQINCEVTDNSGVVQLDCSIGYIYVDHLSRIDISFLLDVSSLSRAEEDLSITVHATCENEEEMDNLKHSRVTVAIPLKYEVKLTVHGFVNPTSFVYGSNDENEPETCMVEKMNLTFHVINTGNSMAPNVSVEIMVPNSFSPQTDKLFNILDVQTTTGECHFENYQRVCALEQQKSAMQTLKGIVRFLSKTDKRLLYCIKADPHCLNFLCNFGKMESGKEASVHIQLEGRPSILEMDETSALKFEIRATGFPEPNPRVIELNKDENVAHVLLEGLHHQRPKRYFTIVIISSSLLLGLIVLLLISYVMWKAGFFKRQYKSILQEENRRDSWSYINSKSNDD
VLA-4, sequence (P05556 21-798): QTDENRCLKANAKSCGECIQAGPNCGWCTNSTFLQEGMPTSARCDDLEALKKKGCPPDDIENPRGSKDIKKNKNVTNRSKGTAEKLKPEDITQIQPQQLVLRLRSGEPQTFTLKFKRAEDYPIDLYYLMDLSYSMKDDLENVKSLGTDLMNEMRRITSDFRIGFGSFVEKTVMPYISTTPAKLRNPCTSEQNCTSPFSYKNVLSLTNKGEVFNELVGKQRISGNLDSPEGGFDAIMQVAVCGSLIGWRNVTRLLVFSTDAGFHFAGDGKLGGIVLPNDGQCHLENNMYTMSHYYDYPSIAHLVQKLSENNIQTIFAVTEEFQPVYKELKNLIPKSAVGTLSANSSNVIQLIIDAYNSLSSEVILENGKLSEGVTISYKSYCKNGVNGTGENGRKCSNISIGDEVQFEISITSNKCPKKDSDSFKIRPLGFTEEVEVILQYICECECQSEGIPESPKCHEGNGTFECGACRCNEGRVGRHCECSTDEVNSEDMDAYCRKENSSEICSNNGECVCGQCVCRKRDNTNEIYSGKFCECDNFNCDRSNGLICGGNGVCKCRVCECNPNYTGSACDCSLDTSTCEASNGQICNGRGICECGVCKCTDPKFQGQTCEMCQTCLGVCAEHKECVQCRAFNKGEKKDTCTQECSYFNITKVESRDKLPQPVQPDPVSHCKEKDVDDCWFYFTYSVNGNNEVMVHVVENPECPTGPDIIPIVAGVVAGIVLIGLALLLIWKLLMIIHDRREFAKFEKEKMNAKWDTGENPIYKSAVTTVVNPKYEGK
How it was run: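 51Cr-labelled Jurkat cells (human T lymphoblastic) were preincubated 30 min at about 22 °C with peptide, then allowed to bind 30 min at 37 °C to wells coated with CS-1 peptide or CS-1-OVA. After washing, bound cells were lysed with SDS and counted. IC50 is the peptide concentration halving binding, normalized to plate controls.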

Jurkat T cell line = test: Jurkat cell binding to frozen human RA synovial sections; format: cell-based; details: 10-mer at 500 μg/ml; inhibitor peptide at its IC50 value
Method: Binding studies were carried out using the Jurkat T cell line and frozen RA synovial sections. […] Stimulated MOLT-4 cells behaved similarly.

BALB/c mice = test: Delayed type hypersensitivity in mice (adoptive transfer, oxazolone); format: in vivo, mouse; details: 6 mg/kg/day subcutaneously by implanted pump for 24 hours; FIG. 5
Method: An adoptive transfer delayed-type hypersensitivity murine model has been developed using splenic T cells primed to oxazolone. This model is described in Elices et al., Clin. Exp. Rheum., 11(Suppl. 8):577-580 (1993), whose procedures were followed here.
Thus, BALB/c mice were shaved on the belly and painted (50 μl on the belly and 5 μl on each paw) with three percent oxazolone in acetone/olive oil (4:1) at days zero and 1. At day 5, the mice were sacrificed, their spleens removed, and splenic T cells were obtained via nylon wool columns.
Normal saline or saline containing 25×10^6 /animal of the oxazolone-immune T cells were separately injected into naive mice. The mice were then challenged by painting 10 μl of 2 percent oxazolone onto one ear each. All procedures were carried out under sterile conditions and in endotoxing-free buffers.
Prior to challenge or saline injection, the mice were implanted with pumps that subcutaneously administered normal saline, normal saline containing the peptide N-phenylacetyl-Leu-Asp-Phe-D-Pro-NH2 or normal saline containing a peptide with a scrambled sequence continually at 6 mg/kg/day for a 24-hour time period. The swelling diameter at the site of challenge or saline injection was measured with a microcaliper 24 hours thereafter.

New Zealand white rabbit = test: Rabbit cardiac allograft model; format: in vivo; details: 1 mg/kg/day injections, day 7
Method: New Zealand white rabbit SPF hearts were allografted into the necks of similar rabbits to assay a graft-vs-host immunorejection model and the affect of a contemplated peptide on that immunoinflammatory response. These studies were carried out by Dr. M. Rabinovitch of the Hospital for Sick Children, Toronto, Ontario, Canada.
Here, two rabbits were injected on day zero with 1 mg/kg/day of the inhibitor peptide N-phenylacetyl-Leu-Asp-Phe-D-Pro-NH2 in aqueous diluent. The two rabbits then each received a grafted heart, with the graft being made in the carotid artery to the aorta of the grafted heart, and the jugular vein to the pulmonary artery of the grafted heart. The rabbits thereafter received daily injections of the same dose of that peptide, and were sacrificed on day 7. Another animal that received normal saline injections in place of the peptide injections, also received a similarly allografted heart, and was similarly sacrificed at day 7.
The animals' blood vessels were thereafter examined histologically for evidence of arteriopathy, and particularly thickening of the intimal elastic lamina (IEL) layer of the coronary arteries. Thickening of the IEL is caused at least in part by emigration of effector cells bearing the CD2 marker such as T cells and NK cells. Clausell et al., Am. J. Path., 142(6):1772-1786 (1993). […]

SJL/J mice = test: Experimental autoimmune encephalomyelitis in mice; format: in vivo; details: 1 mg/mouse intraperitoneally at days 8 and 9; versus scrambled control peptide; FIG. 6
Source text: Experimental autoimmune encephalomyelitis (EAE) is a demyelinating disease of the central nervous system that can be induced in susceptible strains of mice and rats by immunization with myelin basic protein, proteolipid protein (PLP), or their immunodominant T cell determinants, or by injection of CD4-positive T cell clones specific for those determinants. EAE serves as an animal model of human multiple sclerosis. In both diseases, circulating leukocytes such as T cells and monocytes penetrate the blood/brain barrier and damage myelin, resulting in paralysis.
EAE was induced in female SJL/J mice (8 to 14 weeks old) by immunization on day zero with 50 μg of a peptide corresponding to positions 139-151 of PLP emulsified in a 1:1 mixture of PBS and complete Freund's adjuvant (CFA). […]
Mice were observed daily, beginning at day 8 for clinical signs of EAE, and disease was scored on a scale of 0-5 as: 0=no disease; 1=floppy tail; 2=moderate hind limb weakness; 3=paraparesis; 4=paraplegis with moderate forelimb weakness; 5=qualdriplegis or premoribund state. […]
Summed or averaged scores for clinical signs were plotted vs. time. The area under the resulting curves was calculated between day 8 and day 35 to calculate percentage inhibition of EAE by an inhibitor peptide. The percent inhibition was calculated as follows: […]

[1] = Toxicity study at 600 mg/kg/day; format: in vivo
Source text: The results of this study are shown in the graph of FIG. 5 for the saline and recited inhibitor peptide treatments.

[2] = Retention of potency in PBS containing 10 percent serum; details: PBS at 7.2-7.4 containing 10 percent mouse or human serum

Structure (SMILES)	RELATIVE POTENCY (relative peptide inhibition of VLA-4 binding CS-1) (VLA-4)	inhibition of Jurkat cell adhesion to RA synovial sections (Jurkat T cell line)	reduction of inflammation (ear swelling diameter at challenge site) (BALB/c mice)	percentage of IEL thickening based on total coronary vessel area (lesion severity) (New Zealand white rabbit; 59 vessels of two rabbits, saline 35, basal about 15)	vessels exhibiting IEL thickening (New Zealand white rabbit; 141 vessels of two rabbits, saline about 80, basal about 20)	clinical signs of EAE (SJL/J mice)	toxicity [1]	loss of potency after 24 hours [2]	pIC50 (VLA-4)	binding inhibition better than the standard 10-mer peptide of SEQ ID NO:3 (VLA-4)	RELATIVE POTENCY (relative peptide inhibition of VLA-4 binding CS-1) (VLA-4; normalized IC50 relative to standard peptide of SEQ ID NO:3 (=1), about one-tenth or less of the standard is assigned zero)
CC[C@H](C)[C@H](NC(=O)[C@H](CCC(=O)O)NC(=O)[C@@H]1CCCN1C(=O)CN)C(=O)N[C@@H](CC(C)C)C(=O)N[C@@H](CC(=O)O)C(=O)N[C@H](C(=O)N1CCC[C@H]1C(=O)N[C@@H](CO)C(=O)N[C@H](C(=O)O)[C@@H](C)O)C(C)C [G P E I L D V P S T free amine free acid, GPEILDVPST, reference compound] (H-GPEILDVPST-OH)	1	could be inhibited									
CC(C)C[C@H](NC(=O)Cc1ccccc1)C(=O)N[C@@H](CC(=O)O)C(=O)N[C@@H](Cc1ccccc1)C(=O)N1CCC[C@@H]1C(N)=O [X L D F p phenylacetyl amide, N-phenylacetyl-Leu-Asp-Phe-D-Pro-NH2] (PhAc-LDF[dP]-NH2)			reduced this type of CS-1/VLA-4-mediated immunoinflammation	about 18%	about 30%	marked improvement in clinical signs	no toxicity	no loss of potency	~6.30	about 312 times	313
